In the assay the test system is MV-4-11 cells. Briefly: Gene expression microarray analysis (Affymetrix PrimeView) and GSEA. The following applies: ProbeSet 11719185_x_at; LIST B. Type of assay: cell-based, human. More on the design: RFU PODN (11730768_x_at) / Fold change /veh PODN (11730768_x_at) / RFU LINC00158 (11744669_a_at) / Fold change /veh LINC00158 (11744669_a_at) / RFU DUSP10 (11751237_a_at) / Fold change /veh DUSP10 (11751237_a_at) / RFU ID3 (11757404_x_at) / Fold change /veh ID3 (11757404_x_at) / RFU PLEKHG5 (11737974_s_at) / Fold change /veh PLEKHG5 (11737974_s_at) / RFU LRRC4B (11730491_at) / Fold change /veh LRRC4B (11730491_at) / RFU GIMAP4 (11747438_a_at) / Fold change /veh GIMAP4 (11747438_a_at) / RFU KRT8 (11758183_x_at) / Fold change /veh KRT8 (11758183_x_at) / RFU CNN1 (11734310_a_at) / Fold change /veh CNN1 (11734310_a_at) / RFU VPS37D (11726825_at) / Fold change /veh VPS37D (11726825_at) / RFU C10orf10 (11716522_x_at) / Fold change /veh C10orf10 (11716522_x_at) / RFU KIR2DL2 /// KIR2DL4 /// KIR2DL5A /// KIR2DL5B /// KIR2DS1 /// KIR2DS2 /// KIR2DS3 /// KIR2DS4 /// KIR3DL3 /// KIR3DL3 /// KIR3DS1 (11738374_at) / Fold change /veh KIR2DL2 /// KIR2DL4 /// KIR2DL5A /// KIR2DL5B /// KIR2DS1 /// KIR2DS2 /// KIR2DS3 /// KIR2DS4 /// KIR3DL3 /// KIR3DL3 /// KIR3DS1 (11738374_at) / RFU C1QL1 (11718748_at) / Fold change /veh C1QL1 (11718748_at) / RFU TMPRSS4 (11747572_a_at) / Fold change /veh TMPRSS4 (11747572_a_at) / RFU HAMP (11756126_x_at) / Fold change /veh HAMP (11756126_x_at) / RFU RNFT2 (11725882_a_at) / Fold change /veh RNFT2 (11725882_a_at) / RFU NR4A2 (11747474_a_at) / Fold change /veh NR4A2 (11747474_a_at) / RFU ABCC12 (11746883_a_at) / Fold change /veh ABCC12 (11746883_a_at) / RFU TMEM136 (11760407_x_at) / Fold change /veh TMEM136 (11760407_x_at) / RFU CLDN22 /// WWC2 (11732394_at) / Fold change /veh CLDN22 /// WWC2 (11732394_at) / RFU HLA-DPB1 (11760878_x_at) / Fold change /veh HLA-DPB1 (11760878_x_at) / RFU SPINT1 (11716480_a_at) / Fold change /veh SPINT1 (11716480_a_at) / RFU GAP43 (11754022_s_at) / Fold change /veh GAP43 (11754022_s_at) / RFU A4GNT (11735810_at) / Fold change /veh A4GNT (11735810_at) / RFU PRB3 (11715151_x_at) / Fold change /veh PRB3 (11715151_x_at) / RFU TUBB4B (11761932_at) / Fold change /veh TUBB4B (11761932_at) / RFU CAPN14 (11732068_a_at) / Fold change /veh CAPN14 (11732068_a_at) / RFU TMCC2 (11721928_a_at) / Fold change /veh TMCC2 (11721928_a_at) / RFU IRGQ (11745062_a_at) / Fold change /veh IRGQ (11745062_a_at) / RFU FAM174B (11720279_a_at) / Fold change /veh FAM174B (11720279_a_at) / RFU TMPRSS4 (11748680_a_at) / Fold change /veh TMPRSS4 (11748680_a_at) / RFU FAM212B (11763350_a_at) / Fold change /veh FAM212B (11763350_a_at) / RFU PLEKHG5 (11743358_a_at) / Fold change /veh PLEKHG5 (11743358_a_at) / RFU ZSCAN30 (11745921_a_at) / Fold change /veh ZSCAN30 (11745921_a_at) / RFU CMKLR1 (11741424_a_at) / Fold change /veh CMKLR1 (11741424_a_at) / RFU LOC101060620 /// MAPK8IP1 (11723275_at) / Fold change /veh LOC101060620 /// MAPK8IP1 (11723275_at) / RFU SPTSSB (11747773_x_at) / Fold change /veh SPTSSB (11747773_x_at) / RFU PRSS12 (11739890_at) / Fold change /veh PRSS12 (11739890_at) / RFU BIN1 (11741810_x_at) / Fold change /veh BIN1 (11741810_x_at) / RFU WNT11 (11732464_a_at) / Fold change /veh WNT11 (11732464_a_at) / RFU C10orf10 (11716521_a_at) / Fold change /veh C10orf10 (11716521_a_at) / RFU C5orf56 (11738089_at) / Fold change /veh C5orf56 (11738089_at) / RFU CYB561 (11721691_x_at) / Fold change /veh CYB561 (11721691_x_at) / RFU ANKRD19P (11752326_a_at) / Fold change /veh ANKRD19P (11752326_a_at) / RFU OR2T12 /// OR2T33 /// OR2T8 (11738714_s_at) / Fold change /veh OR2T12 /// OR2T33 /// OR2T8 (11738714_s_at) / RFU VCAN (11748164_a_at) / Fold change /veh VCAN (11748164_a_at) / RFU JSRP1 (11732532_at) / Fold change /veh JSRP1 (11732532_at) / RFU KRTAP10-11 (11738290_x_at) / Fold change /veh KRTAP10-11 (11738290_x_at) / RFU MYO3A (11730013_a_at) / Fold change /veh MYO3A (11730013_a_at) / RFU EBF3 (11725865_a_at) / Fold change /veh EBF3 (11725865_a_at) / RFU CAMK2N1 (11719241_x_at) / Fold change /veh CAMK2N1 (11719241_x_at) / RFU C5orf56 (11738088_a_at) / Fold change /veh C5orf56 (11738088_a_at) / RFU OLFML3 (11715873_a_at) / Fold change /veh OLFML3 (11715873_a_at) / RFU LOC100653217 /// NTM (11731650_a_at) / Fold change /veh LOC100653217 /// NTM (11731650_a_at) / RFU MAPK11 (11762145_a_at) / Fold change /veh MAPK11 (11762145_a_at) / RFU FIZ1 (11724087_x_at) / Fold change /veh FIZ1 (11724087_x_at) / RFU OASL (11726364_x_at) / Fold change /veh OASL (11726364_x_at) / RFU SOX15 (11748057_x_at) / Fold change /veh SOX15 (11748057_x_at) / RFU CD79A (11719716_a_at) / Fold change /veh CD79A (11719716_a_at) / RFU HIST1H1D (11736915_at) / Fold change /veh HIST1H1D (11736915_at) / RFU CASKIN2 (11723855_a_at) / Fold change /veh CASKIN2 (11723855_a_at) / RFU LOC730098 (11760151_x_at) / Fold change /veh LOC730098 (11760151_x_at) / RFU OR4N2 (11742367_at) / Fold change /veh OR4N2 (11742367_at) / RFU PRRT2 (11749266_a_at) / Fold change /veh PRRT2 (11749266_a_at) / RFU SNX32 (11753110_a_at) / Fold change /veh SNX32 (11753110_a_at) / RFU CDHR5 (11726645_a_at) / Fold change /veh CDHR5 (11726645_a_at) / RFU RCAN1 (11760418_a_at) / Fold change /veh RCAN1 (11760418_a_at) / RFU FAM167A (11723789_a_at) / Fold change /veh FAM167A (11723789_a_at) / RFU FAM26E (11764081_at) / Fold change /veh FAM26E (11764081_at) / RFU ISYNA1 (11749810_s_at) / Fold change /veh ISYNA1 (11749810_s_at) / RFU ACY1 (11761880_at) / Fold change /veh ACY1 (11761880_at) / RFU 11764098_at / Fold change /veh 11764098_at / RFU SAMD14 (11745864_x_at) / Fold change /veh SAMD14 (11745864_x_at) / RFU NPB (11741838_a_at) / Fold change /veh NPB (11741838_a_at) / RFU TMPRSS6 (11731388_a_at) / Fold change /veh TMPRSS6 (11731388_a_at) / RFU KRTAP10-2 (11738614_at) / Fold change /veh KRTAP10-2 (11738614_at) / RFU ARHGAP8 /// PRR5-ARHGAP8 (11727945_x_at) / Fold change /veh ARHGAP8 /// PRR5-ARHGAP8 (11727945_x_at) / RFU KRTAP5-7 /// NADSYN1 (11734609_at) / Fold change /veh KRTAP5-7 /// NADSYN1 (11734609_at) / RFU RASL12 (11751679_a_at) / Fold change /veh RASL12 (11751679_a_at) / RFU CDKN2B (11736163_a_at) / Fold change /veh CDKN2B (11736163_a_at) / RFU PRF1 (11729649_at) / Fold change /veh PRF1 (11729649_at) / RFU, ZNF638 /// ZNF638-IT1 / Fold change vs veh, ZNF638 /// ZNF638-IT1 / RFU, PANK3 / Fold change vs veh, PANK3 / RFU, SH3YL1 / Fold change vs veh, SH3YL1 / RFU, ZEB2 / Fold change vs veh, ZEB2 / RFU, NRIP1 / Fold change vs veh, NRIP1 / RFU, PTTG1IP / Fold change vs veh, PTTG1IP / RFU, CAPN2 / Fold change vs veh, CAPN2 / RFU, MED14 / Fold change vs veh, MED14 / RFU, SNORA58 / Fold change vs veh, SNORA58 / RFU, C1orf63 / Fold change vs veh, C1orf63 / RFU, LRRFIP1 / Fold change vs veh, LRRFIP1 / RFU, NDUFAF7 / Fold change vs veh, NDUFAF7 / RFU, SLC12A2 / Fold change vs veh, SLC12A2 / RFU, IBTK / Fold change vs veh, IBTK / RFU, ESF1 / Fold change vs veh, ESF1 / Fold change vs veh, TMEM50B / RFU, TAOK1 / Fold change vs veh, TAOK1 / RFU, ACBD3 / Fold change vs veh, ACBD3 / RFU, TMA16 / Fold change vs veh, TMA16 / RFU, RWDD3 / Fold change vs veh, RWDD3 / RFU, BCAT1 / Fold change vs veh, BCAT1 / RFU, EDEM3 / Fold change vs veh, EDEM3 / RFU, TMEM33 / Fold change vs veh, TMEM33 / RFU, WDR75 / Fold change vs veh, WDR75 / RFU, AHCTF1 / Fold change vs veh, AHCTF1 / RFU, TFRC / Fold change vs veh, TFRC / RFU, ZDHHC17 / Fold change vs veh, ZDHHC17 / RFU, NOM1 / Fold change vs veh, NOM1 / RFU, ARL8B / Fold change vs veh, ARL8B / RFU, ZBTB11 / Fold change vs veh, ZBTB11 / RFU, TAMM41 / Fold change vs veh, TAMM41 / RFU, KIAA1704 /// LOC100996395 / Fold change vs veh, KIAA1704 /// LOC100996395 / RFU, ING1 / Fold change vs veh, ING1 / RFU, TRMT61B / Fold change vs veh, TRMT61B / RFU, FUBP3 / Fold change vs veh, FUBP3 / RFU, TP53 / Fold change vs veh, TP53 / RFU, TNKS2 / Fold change vs veh, TNKS2 / RFU, ZFP14 / Fold change vs veh, ZFP14 / RFU, ACTR2 / Fold change vs veh, ACTR2 / RFU, PPP3R1 / Fold change vs veh, PPP3R1 / RFU, PIK3R1 / Fold change vs veh, PIK3R1 / RFU, HNRNPA1 / Fold change vs veh, HNRNPA1 / RFU, RNF170 / Fold change vs veh, RNF170 / RFU, ZNF28 / Fold change vs veh, ZNF28 / RFU, RNGTT / Fold change vs veh, RNGTT / RFU, OGT / Fold change vs veh, OGT / RFU, BRD1 / Fold change vs veh, BRD1 / RFU, MARS / Fold change vs veh, MARS / RFU, ZNF655 / Fold change vs veh, ZNF655 / RFU, FAHD1 / Fold change vs veh, FAHD1 / RFU, BDP1 / Fold change vs veh, BDP1 / RFU, LRRCC1 / Fold change vs veh, LRRCC1 / RFU, ARID1A / Fold change vs veh, ARID1A / RFU, ZNF146 / Fold change vs veh, ZNF146 / RFU, ZNF330 / Fold change vs veh, ZNF330 / RFU, GPN3 / Fold change vs veh, GPN3 / RFU, C9orf123 / Fold change vs veh, C9orf123 / RFU, N4BP2L2 / Fold change vs veh, N4BP2L2 / RFU, ARFIP1 / Fold change vs veh, ARFIP1 / RFU, FAM179B / Fold change vs veh, FAM179B / RFU, BCL10 / Fold change vs veh, BCL10 / RFU, UHRF1BP1L / Fold change vs veh, UHRF1BP1L / RFU, BET1 / Fold change vs veh, BET1 / RFU, CNOT2 / Fold change vs veh, CNOT2 / RFU, ZNF268 / Fold change vs veh, ZNF268 / Fold change vs veh, ZNF507 / RFU, DGCR2 / Fold change vs veh, DGCR2 / RFU, WDSUB1 / Fold change vs veh, WDSUB1 / Fold change vs veh, HSP90B1 /// MIR3652 / RFU, ADSS / Fold change vs veh, ADSS / RFU, GK / Fold change vs veh, GK / RFU, ZNF148 / Fold change vs veh, ZNF148 / RFU, TAF9 / Fold change vs veh, TAF9 / RFU, SLC1A5 / Fold change vs veh, SLC1A5 / RFU, SLMO2 / Fold change vs veh, SLMO2 / RFU, ABCC4 / Fold change vs veh, ABCC4 / RFU, LOC101060439 /// RAP1B / Fold change vs veh, LOC101060439 /// RAP1B / RFU, RFX7 / Fold change vs veh, RFX7 / RFU, GTPBP10 / Fold change vs veh, GTPBP10 / RFU, CNEP1R1 / Fold change vs veh, CNEP1R1 / RFU, BIVM-ERCC5 /// ERCC5 / Fold change vs veh, BIVM-ERCC5 /// ERCC5 / RFU, ILF3 / Fold change vs veh, ILF3 / RFU 11762660_at / Fold change /veh 11762660_at / RFU VCAN (11757783_s_at) / Fold change /veh VCAN (11757783_s_at) / RFU DDX43 (11728927_at) / Fold change /veh DDX43 (11728927_at) / RFU KRT8 (11758188_x_at) / Fold change /veh KRT8 (11758188_x_at) / RFU NKD1 (11759106_at) / Fold change /veh NKD1 (11759106_at) / RFU SRD5A1 (11742802_a_at) / Fold change /veh SRD5A1 (11742802_a_at) / RFU TPSAB1 /// TPSB2 (11721975_s_at) / Fold change /veh TPSAB1 /// TPSB2 (11721975_s_at) / RFU GSTM3 (11746129_a_at) / Fold change /veh GSTM3 (11746129_a_at) / RFU IL23R (11737362_x_at) / Fold change /veh IL23R (11737362_x_at) / RFU TMEM51 (11727254_a_at) / Fold change /veh TMEM51 (11727254_a_at) / RFU PIWIL2 (11732686_x_at) / Fold change /veh PIWIL2 (11732686_x_at) / RFU ORM1 (11744905_x_at) / Fold change /veh ORM1 (11744905_x_at) / RFU CCDC152 (11743942_at) / Fold change /veh CCDC152 (11743942_at) / RFU ECM1 (11717891_a_at) / Fold change /veh ECM1 (11717891_a_at) / RFU IL23R (11748794_a_at) / Fold change /veh IL23R (11748794_a_at) / RFU TNFAIP8L3 (11732012_x_at) / Fold change /veh TNFAIP8L3 (11732012_x_at) / RFU MBOAT4 (11741988_at) / Fold change /veh MBOAT4 (11741988_at) / RFU 11764193_at / Fold change /veh 11764193_at / RFU TMEM53 (11763286_at) / Fold change /veh TMEM53 (11763286_at) / RFU MAGEB2 (11727129_at) / Fold change /veh MAGEB2 (11727129_at) / RFU TMEM200A (11744735_a_at) / Fold change /veh TMEM200A (11744735_a_at) / RFU CCDC152 (11751479_a_at) / Fold change /veh CCDC152 (11751479_a_at) / RFU FAM211A (11726209_a_at) / Fold change /veh FAM211A (11726209_a_at) / RFU RGS16 (11746705_a_at) / Fold change /veh RGS16 (11746705_a_at) / RFU VCAN (11755009_s_at) / Fold change /veh VCAN (11755009_s_at) / RFU RHOB (11743442_s_at) / Fold change /veh RHOB (11743442_s_at) / RFU RGS16 (11720943_a_at) / Fold change /veh RGS16 (11720943_a_at) / RFU RGS16 (11720944_at) / Fold change /veh RGS16 (11720944_at) / RFU, VPS4B / Fold change vs veh, VPS4B / RFU, CREB1 / Fold change vs veh, CREB1 / RFU, DNAJC13 / Fold change vs veh, DNAJC13 / RFU, GNAQ / Fold change vs veh, GNAQ / RFU, CDK5R1 / Fold change vs veh, CDK5R1 / RFU, ZRANB3 / Fold change vs veh, ZRANB3 / RFU, CUL4A / Fold change vs veh, CUL4A / RFU, CCNY / Fold change vs veh, CCNY / RFU, UFL1 / Fold change vs veh, UFL1 / RFU, COG3 / Fold change vs veh, COG3 / RFU, DIAPH2 / Fold change vs veh, DIAPH2 / RFU, SKA2 / Fold change vs veh, SKA2 / RFU, AFF3 / Fold change vs veh, AFF3 / RFU, LMF1 / Fold change vs veh, LMF1 / RFU, IPO11 / Fold change vs veh, IPO11 / RFU, DFFB / Fold change vs veh, DFFB / RFU, FOXP1 / Fold change vs veh, FOXP1 / RFU, CARD8 / Fold change vs veh, CARD8 / RFU, STRN3 / Fold change vs veh, STRN3 / RFU, ADK / Fold change vs veh, ADK / RFU, RASSF2 / Fold change vs veh, RASSF2 / RFU, WIPF1 / Fold change vs veh, WIPF1 / RFU, LARP1B / Fold change vs veh, LARP1B / RFU, RASA1 / Fold change vs veh, RASA1 / RFU, RB1 / Fold change vs veh, RB1 / RFU, PPFIA1 / Fold change vs veh, PPFIA1 / RFU, MAT2A / Fold change vs veh, MAT2A / RFU, CCT5 / Fold change vs veh, CCT5 / RFU, WDR92 / Fold change vs veh, WDR92 / RFU, CUX1 / Fold change vs veh, CUX1 / RFU, TTC7A / Fold change vs veh, TTC7A / RFU, TMEM135 / Fold change vs veh, TMEM135 / RFU, DEPTOR / Fold change vs veh, DEPTOR / RFU, CPM / Fold change vs veh, CPM / RFU, DNAJB6 / Fold change vs veh, DNAJB6 / RFU, CACNA2D3 / Fold change vs veh, CACNA2D3 / RFU, DTX4 / Fold change vs veh, DTX4 / RFU, TFCP2 / Fold change vs veh, TFCP2 / RFU, GMCL1 /// GMCL1P1 / Fold change vs veh, GMCL1 /// GMCL1P1 / RFU, AEBP2 / Fold change vs veh, AEBP2 / RFU, SNHG1 /// SNORD22 /// SNORD25 /// SNORD26 /// SNORD27 /// SNORD28 /// SNORD29 /// SNORD31 / Fold change vs veh, SNHG1 /// SNORD22 /// SNORD25 /// SNORD26 /// SNORD27 /// SNORD28 /// SNORD29 /// SNORD31 / Fold change (Aza/veh), C12orf56 (ProbeSet 11735607_a_at) / Fold change (ACY-1035/veh), C12orf56 (ProbeSet 11735607_a_at) / Fold change (Aza/veh), FGFR1OP (ProbeSet 11751329_s_at) / Fold change (ACY-1035/veh), FGFR1OP (ProbeSet 11751329_s_at) / Fold change (Aza/veh), VPS36 (ProbeSet 11739960_a_at) / Fold change (ACY-1035/veh), VPS36 (ProbeSet 11739960_a_at) / RFU SYPL1 (11715823_x_at) / Fold change /veh SYPL1 (11715823_x_at) / RFU IGFBP7 (11715501_s_at) / Fold change /veh IGFBP7 (11715501_s_at) / RFU REEP3 (11722064_at) / Fold change /veh REEP3 (11722064_at) / RFU IGLL1 (11728026_x_at) / Fold change /veh IGLL1 (11728026_x_at): dose or concentration left out as unconfirmed.

SMILES strings stand for the structures.

For the compound `Nc1ccc(-c2cccs2)cc1NC(=O)c1ccc2c(c1)cc(C1CC1)n2CCN1CCOCC1` [ACY-1035], the “Fold change vs veh, N4BP2L2” value turned out to be 1.03.

The values are drawn from publication PMC5218480 (PLoS ONE, 2017).
